Measured values reported in publication PMC10653547, “Synergistic effect of two antimicrobial peptides, BP203 and MAP-0403 J-2 with conventional antibiotics against colistin-resistant Escherichia coli and Klebsiella pneumoniae clinical isolates” (PLOS ONE, 2023).
Converted amounts (≈) assume the structure as drawn. “Also recorded” adds a separate entry of the source. Like-named read-outs stand apart in the source and are kept apart here.

Key:
sheep red blood cells = experiment: Hemolytic activity assay; assay type: cell-based; conditions: at concentrations as high as 200 μg/mL
Procedure: Sheep erythrocytes were employed to assess the hemolytic activity of BP203 and MAP-0403 J-2, following previously described with some modifications. Briefly, defibrinated sheep red blood cells (sRBCs) were centrifuged at 1,000× g, 4°C for 10 min. The packed sRBCs underwent three times washes with phosphate buffer saline (PBS), at pH 7.4, and were subsequently suspended in PBS to achieve a concentration of 4% (v/v). […] Following an incubation period of 1 h at 37°C, the mixtures were centrifuged at room temperature, 1,000× g for 10 min. The supernatants were collected and transferred to a 96-well microplate. Next, absorbance measurement was taken at 540 nm using a microplate reader (Tecan Group, Zurich, Switzerland). Blank, negative and positive controls were established using sRBCs incubated with PBS alone, BSA solution, and 0.1% Triton X-100, respectively. […] The percentage of hemolytic activity was calculated with the following equation: Hemolysis (%) = {(Sample absorbance—PBS absorbance)/(0.1% Triton X-100 absorbance—PBS absorbance)} × 100.

[1] = system: K. pneumoniae ATCC BAA-1706
Procedure: (§1) The MICs of BP203 and MAP-0403 J-2 against clinically colistin-resistant E. coli and K. pneumoniae isolates were determined using the broth microdilution method, according to CLSI recommendations. Briefly, the peptides were subjected to serial dilution in cation-adjusted Mueller-Hinton broth (CAMHB) and added to a 96-well microtiter plate (Wuxi NEST Biotechnology, Wuxi, China). Subsequently, bacterial suspensions from freshly mid-log phase cultures were diluted to 10^6 CFU/mL with CAMHB, and introduced to each well containing the peptides.
The antibacterial activity of BP203 and MAP-0403 J-2 was evaluated concerning their response to temperature, pH, serum, and salt ions using the MIC assay, following the previously mentioned procedure. The MIC values of peptides were determined against E. coli ATCC29522 and K. pneumoniae ATCC BAA-1706. […] For the pH stability assay, both peptides were incubated in buffers with different pH values (100 mM buffers: glycine-HCl buffer (pH 2.0), sodium acetate buffer (pH 4.0), sodium phosphate buffer (pH 6.0), Tris-HCl buffer (pH 8.0), and glycine-NaOH buffer (pH 10.0)) for 1 h at 37°C. […] For serum stability assay, both peptides were exposed to 25% and 50% fetal bovine serum (FBS) for 1 h at 37°C, followed by a heat activation step for 30 min at 60°C. Afterward, the peptide solutions were serially diluted and MIC was subsequently determined. For the salt stability assay, each peptide was treated in MHB supplemented with different salts at their physiological concentrations; NaCl (100, 150, and 200 mM), MgCl2 (0.5, 1 and 2 mM), and FeCl3 […]. The serial dilutions of peptides were incubated with tested strains for MIC testing. The MICs were observed after 20–24 h of incubation at 37°C.

[2] = system: MRC-5 (CCL-171) normal lung fibroblast cells; experiment: Cytotoxicity assay using MTT; assay type: cell-based, human
Procedure: MRC-5 (CCL-171) cell line, a representative of normal lung fibroblast cells, was used to investigate the cytotoxic effects of two AMPs, BP203 and MAP-0403 J-2. The cells were grown in Dulbecco’s Modified Eagle Medium (DMEM, Cytiva Life Sciences, Marlborough, MA, USA), supplemented with 10% fetal bovine serum (FBS), 1% penicillin (10,000 U/mL) and streptomycin (10,000 μg/mL) (Gibco, Waltham, MA, USA). 2×10^4 cells were seeded into each well of a 96-well plate and allowed to adhere for 24 h. Then, these cells were subjected to exposure to a medium containing a prepared two-fold serial dilution of BP203 or MAP-0403 J-2. […] 3-(4,5-Dimethylthiazol-2-yl)-2,5-Diphenyltetrazolium Bromide (MTT) was introduced into each well to achieve a concentration of 0.5 mg/mL followed by 4 h. incubation. Subsequently, formazan crystals were dissolved through the addition of 100 μL of a solubilizing solution composed of 10% SDS in 0.1 N HCl and the developed color was measured using a microtiter plate reader at an optical density (OD) of 570 nm. Cell viability was calculated as follows: (ODsample/ODcontrol) × 100.

[3] = system: K. pneumoniae ATCC BAA-1706 and colistin-resistant K. pneumoniae clinical isolates
Procedure: as §1

[4] = system: E. coli ATCC 25922 and colistin-resistant E. coli clinical isolates
Procedure: as §1

Q: `CC[C@H](C)[C@H](NC(=O)[C@H](CCCCN)NC(=O)[C@H](CCCCN)NC(=O)[C@H](Cc1ccccc1)NC(=O)[C@H](CC(C)C)NC(=O)[C@H](CCCCN)NC(=O)[C@@H](N)CCCCN)C(=O)N[C@@H](CC(C)C)C(=O)N[C@@H](CCCNC(=N)N)C(=O)N[C@@H](Cc1ccc(O)cc1)C(=O)N[C@@H](CC(C)C)C(N)=O` [BP203] was tested. Which “Hemolysis (in words)” value (sheep red blood cells) did it give?
A: negligible hemolysis; also recorded: no hemolytic activity

Q: What about the “MIC after FBS treatment” value ([1]; 0% FBS (control)) of the same molecule?
A: 4 µg/mL (≈ 2.76 µM)

Q: And the “MIC after FBS treatment” value ([1]; 25% fetal bovine serum, 1 h at 37 °C)?
A: 4 µg/mL (≈ 2.76 µM)

Q: What about the “MIC after FBS treatment” value ([1]; 50% fetal bovine serum, 1 h at 37 °C) of the same molecule?
A: 4 µg/mL (≈ 2.76 µM)

Q: And the “MIC after pH treatment” value ([1]; pH 2, 100 mM glycine-HCl buffer, 1 h at 37 °C, neutralized)?
A: 4 μg/mL

Q: What about the “MIC after pH treatment” value ([1]; pH 4, 100 mM sodium acetate buffer, 1 h at 37 °C, neutralized) of the same molecule?
A: 4 μg/mL

Q: What about the “MIC after pH treatment” value ([1]; pH 6, 100 mM sodium phosphate buffer, 1 h at 37 °C, neutralized) of the same molecule?
A: 4 μg/mL

Q: What about the “MIC after pH treatment” value ([1]; pH 7 (control)) of the same molecule?
A: 4 μg/mL

Q: What about the “MIC after pH treatment” value ([1]; pH 8, 100 mM Tris-HCl buffer, 1 h at 37 °C, neutralized) of the same molecule?
A: 4 μg/mL

Q: And the “MIC after pH treatment” value ([1]; pH 10, 100 mM glycine-NaOH buffer, 1 h at 37 °C, neutralized)?
A: 4 μg/mL

Q: What about the “MIC after temperature treatment” value ([1]; peptide incubated 1 h at 25 °C (control)) of the same molecule?
A: 4 µg/mL (≈ 2.76 µM)

Q: And the “MIC after temperature treatment” value ([1]; peptide incubated 1 h at 37 °C)?
A: 4 µg/mL (≈ 2.76 µM)

Q: And the “MIC after temperature treatment” value ([1]; peptide incubated 1 h at 50 °C)?
A: 4 µg/mL (≈ 2.76 µM)

Q: And the “MIC after temperature treatment” value ([1]; peptide incubated 1 h at 70 °C)?
A: 4 µg/mL (≈ 2.76 µM)

Q: What about the “MIC after temperature treatment” value ([1]; peptide incubated 1 h at 90 °C) of the same molecule?
A: 4 µg/mL (≈ 2.76 µM)

Q: And the “Cell viability at highest concentration” value ([2]; 200 μg/mL, 24 h)?
A: 56.01%

Q: And the IC50 ([2]; 24 h exposure)?
A: > 200 µg/mL

Q: What about the “MIC for the majority of (most) colistin-resistant K. pneumoniae isolates” value [3] of the same molecule?
A: > 128 µg/mL

Q: What about the MBC ([3]; K. pneumoniae ATCC BAA-1706) of the same molecule?
A: 4 µg/mL (≈ 2.76 µM)

Q: What about the MIC ([3]; K. pneumoniae ATCC BAA-1706) of the same molecule?
A: 4 µg/mL (≈ 2.76 µM)

Q: What about the MBC ([3]; KP-01) of the same molecule?
A: 16 µg/mL (≈ 11 µM)

Q: What about the MIC ([3]; KP-01) of the same molecule?
A: 16 µg/mL (≈ 11 µM)

Q: What about the MBC ([3]; KP-02) of the same molecule?
A: 256 µg/mL (≈ 177 µM)

Q: What about the MIC ([3]; KP-02) of the same molecule?
A: 256 µg/mL (≈ 177 µM)

Q: And the MBC ([3]; KP-03)?
A: 128 µg/mL (≈ 88.3 µM)

Q: What about the MIC ([3]; KP-03) of the same molecule?
A: 128 µg/mL (≈ 88.3 µM)

Q: And the MBC ([3]; KP-04)?
A: 512 µg/mL (≈ 353 µM)

Q: And the MIC ([3]; KP-04)?
A: 512 µg/mL (≈ 353 µM)

Q: And the MBC ([3]; KP-05)?
A: 32 µg/mL (≈ 22.1 µM)

Q: What about the MIC ([3]; KP-05) of the same molecule?
A: 32 µg/mL (≈ 22.1 µM)

Q: And the MBC ([3]; KP-06)?
A: 256 µg/mL (≈ 177 µM)

Q: What about the MIC ([3]; KP-06) of the same molecule?
A: 256 µg/mL (≈ 177 µM)

Q: What about the MBC ([3]; KP-07) of the same molecule?
A: 128 µg/mL (≈ 88.3 µM)

Q: And the MIC ([3]; KP-07)?
A: 128 µg/mL (≈ 88.3 µM)

Q: What about the MBC ([3]; KP-08) of the same molecule?
A: 256 µg/mL (≈ 177 µM)

Q: And the MIC ([3]; KP-08)?
A: 256 µg/mL (≈ 177 µM)

Q: And the MBC ([3]; KP-09)?
A: 512 µg/mL (≈ 353 µM)

Q: What about the MIC ([3]; KP-09) of the same molecule?
A: 512 µg/mL (≈ 353 µM)

Q: What about the MBC ([3]; KP-10) of the same molecule?
A: 512 µg/mL (≈ 353 µM)

Q: What about the MIC ([3]; KP-10) of the same molecule?
A: 512 µg/mL (≈ 353 µM)

Q: And the “MIC against colistin-resistant K. pneumoniae clinical isolates” value ([3]; range over ten isolates)?
A: 16 to 512 µg/mL

Q: What about the MBC ([4]; E. coli ATCC 25922) of the same molecule?
A: 4 µg/mL (≈ 2.76 µM)

Q: And the MIC ([4]; E. coli ATCC 25922)?
A: 4 µg/mL (≈ 2.76 µM)

Q: And the MBC ([4]; EC-01)?
A: 2 µg/mL (≈ 1.38 µM)

Q: And the MIC ([4]; EC-01)?
A: 2 µg/mL (≈ 1.38 µM)

Q: What about the MBC ([4]; EC-02) of the same molecule?
A: 8 µg/mL (≈ 5.52 µM)

Q: What about the MIC ([4]; EC-02) of the same molecule?
A: 8 µg/mL (≈ 5.52 µM)

Q: And the MBC ([4]; EC-03)?
A: 2 µg/mL (≈ 1.38 µM)

Q: What about the MIC ([4]; EC-03) of the same molecule?
A: 2 µg/mL (≈ 1.38 µM)

Q: And the MBC ([4]; EC-04)?
A: 4 µg/mL (≈ 2.76 µM)

Q: What about the MIC ([4]; EC-04) of the same molecule?
A: 2 µg/mL (≈ 1.38 µM)

Q: What about the MBC ([4]; EC-05) of the same molecule?
A: 8 µg/mL (≈ 5.52 µM)

Q: And the MIC ([4]; EC-05)?
A: 8 µg/mL (≈ 5.52 µM)

Q: What about the MBC ([4]; EC-06) of the same molecule?
A: 2 µg/mL (≈ 1.38 µM)

Q: And the MIC ([4]; EC-06)?
A: 2 µg/mL (≈ 1.38 µM)

Q: And the MBC ([4]; EC-07)?
A: 8 µg/mL (≈ 5.52 µM)

Q: And the MIC ([4]; EC-07)?
A: 8 µg/mL (≈ 5.52 µM)

Q: What about the MBC ([4]; EC-08) of the same molecule?
A: 16 µg/mL (≈ 11 µM)

Q: What about the MIC ([4]; EC-08) of the same molecule?
A: 16 µg/mL (≈ 11 µM)

Q: What about the MBC ([4]; EC-09) of the same molecule?
A: 2 µg/mL (≈ 1.38 µM)

Q: What about the MIC ([4]; EC-09) of the same molecule?
A: 2 µg/mL (≈ 1.38 µM)

Q: What about the MBC ([4]; EC-10) of the same molecule?
A: 8 µg/mL (≈ 5.52 µM)

Q: And the MIC ([4]; EC-10)?
A: 8 µg/mL (≈ 5.52 µM)

Q: What about the “MICs against colistin-resistant E. coli clinical isolates” value ([4]; range over ten isolates) of the same molecule?
A: 2 to 16 µg/mL
